The record followed here is article PMC11383987 (bioRxiv, 2024).

Holding throughout (type): biochemical
For assay [1], the target named is T1, PIN8 S266A (Arabidopsis thaliana, UniProt Q9LFP6, S266A).
T1 sequence (Q9LFP6 1-367 S266A): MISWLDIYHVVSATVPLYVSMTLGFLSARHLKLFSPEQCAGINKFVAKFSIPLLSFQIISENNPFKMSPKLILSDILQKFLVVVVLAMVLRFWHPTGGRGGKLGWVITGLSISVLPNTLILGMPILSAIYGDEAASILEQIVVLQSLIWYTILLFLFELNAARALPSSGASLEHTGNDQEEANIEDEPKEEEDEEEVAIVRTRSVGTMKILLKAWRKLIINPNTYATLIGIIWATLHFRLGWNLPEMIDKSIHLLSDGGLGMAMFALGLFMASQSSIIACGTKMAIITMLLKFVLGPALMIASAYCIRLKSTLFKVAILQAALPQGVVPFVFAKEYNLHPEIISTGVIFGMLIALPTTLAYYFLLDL
In words: SSM electrophysiology peak current response, PIN8 S266A proteoliposomes. Particulars: for Imax: PIN8 S266A.

Assay [2] has as its target T2, PIN8 Y150F (Arabidopsis thaliana, UniProt Q9LFP6, Y150F).
T2 sequence (Q9LFP6 1-367 Y150F): T1 sequence (Q9LFP6 1-367 S266A) with Y150F, A266S
Put plainly: SSM electrophysiology peak current response, PIN8 Y150F proteoliposomes. Particulars: for Imax: PIN8 Y150F.

Assay [3] deals with T3, PIN8 S146A (Arabidopsis thaliana, UniProt Q9LFP6, S146A).
T3 sequence (Q9LFP6 1-367 S146A): T1 sequence (Q9LFP6 1-367 S266A) with S146A, A266S
Put plainly: SSM electrophysiology peak current response, PIN8 S146A proteoliposomes. The conditions noted are these: for Imax: PIN8 S146A.

Assay [4] addresses T4, PIN8 S55A (Arabidopsis thaliana, UniProt Q9LFP6, S55A).
T4 sequence (Q9LFP6 1-367 S55A): T1 sequence (Q9LFP6 1-367 S266A) with S55A, A266S
Put plainly: SSM electrophysiology peak current response, PIN8 S55A proteoliposomes. Particulars: for Imax: PIN8 S55A.

Assay [5] has as its target T5, PIN8 I51Y (Arabidopsis thaliana, UniProt Q9LFP6, I51Y).
T5 sequence (Q9LFP6 1-367 I51Y): T1 sequence (Q9LFP6 1-367 S266A) with I51Y, A266S
In words: SSM electrophysiology peak current response, PIN8 I51Y proteoliposomes. The conditions noted are these: for Imax: PIN8 I51Y.

Assay [6] deals with T6, PIN8 N223A (Arabidopsis thaliana, UniProt Q9LFP6, N223A).
T6 sequence (Q9LFP6 1-367 N223A): T1 sequence (Q9LFP6 1-367 S266A) with N223A, A266S
Put plainly: SSM electrophysiology peak current response, PIN8 N223A proteoliposomes. The conditions noted are these: for effect of N223A mutation on affinity/binding: PIN8 N223A vs WT.

The target in assay [7] is T7, PIN8 S55A/S146A (Arabidopsis thaliana, UniProt Q9LFP6, S146A/S55A).
T7 sequence (Q9LFP6 1-367 S55A/S146A): T1 sequence (Q9LFP6 1-367 S266A) with S55A, S146A, A266S
Put plainly: SSM electrophysiology peak current response, PIN8 S55A/S146A proteoliposomes. The conditions noted are these: for Imax: PIN8 S55A/S146A.

Substitutions are numbered along the chain they refer to.

Regarding `O=C(O)Cc1c[nH]c2ccccc12` [IAA, indole-3-acetic acid], the EC50 in assay [1] came to 578 ± 183 µM; in assay [2] it was 452 ± 32 µM; in assay [3], 498 ± 191 µM; in assay [4] it was 213 ± 58 µM; in assay [5], 547 ± 171 µM; in assay [7] it was 341 ± 128 µM. The Imax was 4 ± 0.6 nA in assay [1]; 6 ± 2 nA in assay [2]; 8 ± 2 nA in assay [3]; 6 ± 1 nA in assay [4]; 2 ± 0.2 nA in assay [5]; 2 ± 0.8 nA in assay [6] (PIN8 N223A). The molecule further had an Imax in assay [7] of 7 ± 2 nA. In addition, the “effect of S55A mutation on affinity” value in assay [4] (PIN8 S55A vs WT) was “remains unchanged”. In assay [6], the “effect of N223A mutation on affinity/binding” value (“effect … on affinity/binding” for short) was “reduces affinity for IAA only slightly”. The “effect of S55A/S146A double mutation on affinity” value in assay [7] (PIN8 S55A/S146A vs WT) is listed as “no effect”.

`O=C(O)COc1ccc(Cl)cc1` [4-CPA, 4-chlorophenoxyacetic acid]: the EC50 in assay [1] worked out at 2100 ± 290 µM; in assay [2], 710 ± 228 µM; in assay [3], 369 ± 27 µM; in assay [4], 328 ± 15 µM; in assay [5], 1040 ± 252 µM; in assay [7] it was 81 ± 3 µM. Besides, the Imax in assay [1] came out at 7 ± 2 nA; in assay [2], 5 ± 0.9 nA; in assay [3] it was 8 ± 2 nA; in assay [4], 11 ± 1 nA; in assay [5] it was 3 ± 0.8 nA; in assay [7], 11 ± 0.9 nA. Further, the “effect … on affinity/binding” value in assay [6] was “completely abolishes binding”.

As for `O=C(O)COc1ccc(Cl)cc1Cl` [2,4-D, 2,4-dichlorophenoxyacetic acid], the EC50 was found to be 774 ± 70 µM in assay [1]; 816 ± 275 µM in assay [2]; 164 ± 67 µM in assay [3]; 95 ± 36 µM in assay [4]; 641 ± 77 µM in assay [5]; 38 ± 6 µM in assay [7]. Also, the Imax was 12 ± 0.7 nA in assay [1]; 8 ± 2 nA in assay [2]; 8 ± 0.9 nA in assay [3]; 6 ± 0.6 nA in assay [4]; 3 ± 0.8 nA in assay [5]; 9 ± 2 nA in assay [7]. The “effect … on affinity/binding” value in assay [6] is recorded as “completely abolishes binding”.

As usually defined, the EC50 is the midpoint of the concentration-response curve. A low value points to a more potent agent.
